In brackets after ≈: the same amount, converted by molar mass.
How the values were obtained:
Assay type in all cases: functional
Bacillus subtilis = experiment: Antimicrobial activity against Bacillus subtilis MTCC 441 by broth microdilution technique
Escherichia coli = experiment: Antimicrobial activity against Escherichia coli MTCC 443 by broth microdilution technique
Staphylococcus aureus = experiment: Antimicrobial activity against Staphylococcus aureus MTCC 96 by broth microdilution technique
Candida albicans = experiment: Antimicrobial activity against Candida albicans MTCC 227 by broth serial dilution technique
Pseudomonas aeruginosa = experiment: Antimicrobial activity against Pseudomonas aeruginosa MTCC 1688 by broth microdilution technique

Compound | MIC50 (Bacillus subtilis) | MIC50 (Escherichia coli) | MIC50 (Staphylococcus aureus) | MIC50 (Candida albicans) | MIC50 (Pseudomonas aeruginosa)
Fc1ccc(-n2cc(-c3nc4cc(Cl)ccc4o3)cn2)cc1F | 200 µg/mL (≈ 603 µM) | 100 µg/mL (≈ 301 µM) | 125 µg/mL (≈ 377 µM) | 500 µg/mL (≈ 1510 µM) | 125 µg/mL (≈ 377 µM)
O/N=C(/c1cnn(-c2ccc(F)c(F)c2)c1)c1cc(F)ccc1O | 250 µg/mL (≈ 750 µM) | 500 µg/mL (≈ 1500 µM) | 500 µg/mL (≈ 1500 µM) | 1000 µg/mL (≈ 3000 µM) | 500 µg/mL (≈ 1500 µM)
Cc1ccc2nc(-c3cnn(-c4ccc(F)c(F)c4)c3)oc2c1 | 25 µg/mL (≈ 80.3 µM) | 200 µg/mL (≈ 642 µM) | 200 µg/mL (≈ 642 µM) | 500 µg/mL (≈ 1610 µM) | 500 µg/mL (≈ 1610 µM)
CC1(C)S[C@@H]2[C@H](NC(=O)[C@H](N)c3ccccc3)C(=O)N2[C@H]1C(=O)O [AMPICILLIN] | 250 µg/mL (≈ 715 µM) | 100 µg/mL (≈ 286 µM) | 250 µg/mL (≈ 715 µM) | – | 100 µg/mL (≈ 286 µM)
Fc1ccc(-n2cc(-c3nc4ccccc4o3)cn2)cc1F | 200 µg/mL (≈ 673 µM) | 125 µg/mL (≈ 421 µM) | 125 µg/mL (≈ 421 µM) | 1000 µg/mL (≈ 3360 µM) | 100 µg/mL (≈ 336 µM)
Fc1ccc(-n2cc(-c3nc4cc(Br)ccc4o3)cn2)cc1F | 250 µg/mL (≈ 665 µM) | 250 µg/mL (≈ 665 µM) | 250 µg/mL (≈ 665 µM) | 500 µg/mL (≈ 1330 µM) | 250 µg/mL (≈ 665 µM)
O=C(c1cnn(-c2ccc(F)c(F)c2)c1)c1cc(F)ccc1O | 62.5 µg/mL (≈ 196 µM) | 62.5 µg/mL (≈ 196 µM) | 100 µg/mL (≈ 314 µM) | 500 µg/mL (≈ 1570 µM) | 50 µg/mL (≈ 157 µM)
O=C(c1cnn(-c2ccc(F)c(F)c2)c1)c1cc(F)cc(Cl)c1O | 500 µg/mL (≈ 1420 µM) | 500 µg/mL (≈ 1420 µM) | 1000 µg/mL (≈ 2840 µM) | 250 µg/mL (≈ 709 µM) | 500 µg/mL (≈ 1420 µM)
Cc1ccc(O)c(C(=O)c2cnn(-c3ccc(F)c(F)c3)c2)c1 | 500 µg/mL (≈ 1590 µM) | 500 µg/mL (≈ 1590 µM) | 500 µg/mL (≈ 1590 µM) | 1000 µg/mL (≈ 3180 µM) | 250 µg/mL (≈ 795 µM)
Fc1ccc2oc(-c3cnn(-c4ccc(F)c(F)c4)c3)nc2c1 | 200 µg/mL (≈ 634 µM) | 250 µg/mL (≈ 793 µM) | 500 µg/mL (≈ 1590 µM) | 250 µg/mL (≈ 793 µM) | 50 µg/mL (≈ 159 µM)
O=C(O)c1cn(C2CC2)c2cc(N3CCNCC3)c(F)cc2c1=O [CIPROFLOXACIN] | 50 µg/mL (≈ 151 µM) | 25 µg/mL (≈ 75.4 µM) | 50 µg/mL (≈ 151 µM) | – | 25 µg/mL (≈ 75.4 µM)
O=C(N[C@H](CO)[C@H](O)c1ccc([N+](=O)[O-])cc1)C(Cl)Cl [CHLORAMPHENICOL] | 50 µg/mL (≈ 155 µM) | 50 µg/mL (≈ 155 µM) | 50 µg/mL (≈ 155 µM) | – | 50 µg/mL (≈ 155 µM)
O/N=C(/c1cnn(-c2ccc(F)c(F)c2)c1)c1cc(Br)ccc1O | 1000 µg/mL (≈ 2540 µM) | 200 µg/mL (≈ 507 µM) | 500 µg/mL (≈ 1270 µM) | 500 µg/mL (≈ 1270 µM) | 100 µg/mL (≈ 254 µM)
GENTAMICIN | 1 µg/mL | 0.05 µg/mL | 0.25 µg/mL | – | 1 µg/mL
CCn1cc(C(=O)O)c(=O)c2cc(F)c(N3CCNCC3)cc21 [NORFLOXACIN] | 100 µg/mL (≈ 313 µM) | 10 µg/mL (≈ 31.3 µM) | 10 µg/mL (≈ 31.3 µM) | – | 10 µg/mL (≈ 31.3 µM)
O=C(c1cnn(-c2ccc(F)c(F)c2)c1)c1cc(Cl)ccc1O | 500 µg/mL (≈ 1490 µM) | 250 µg/mL (≈ 747 µM) | 1000 µg/mL (≈ 2990 µM) | 500 µg/mL (≈ 1490 µM) | 500 µg/mL (≈ 1490 µM)
Cc1ccc(C(=O)c2cnn(-c3ccc(F)c(F)c3)c2)c(O)c1 | 100 µg/mL (≈ 318 µM) | 125 µg/mL (≈ 398 µM) | 200 µg/mL (≈ 636 µM) | 500 µg/mL (≈ 1590 µM) | 62.5 µg/mL (≈ 199 µM)
NYSTATIN | – | – | – | 100 µg/mL | –
Cc1cc(C)c(O)c(C(=O)c2cnn(-c3ccc(F)c(F)c3)c2)c1 | 500 µg/mL (≈ 1520 µM) | 500 µg/mL (≈ 1520 µM) | 500 µg/mL (≈ 1520 µM) | 1000 µg/mL (≈ 3050 µM) | 250 µg/mL (≈ 761 µM)
O/N=C(/c1cnn(-c2ccc(F)c(F)c2)c1)c1ccccc1O | > 1000 µg/mL | 500 µg/mL (≈ 1590 µM) | > 1000 µg/mL | 1000 µg/mL (≈ 3170 µM) | 500 µg/mL (≈ 1590 µM)
Cc1ccc2oc(-c3cnn(-c4ccc(F)c(F)c4)c3)nc2c1 | 200 µg/mL (≈ 642 µM) | 500 µg/mL (≈ 1610 µM) | 50 µg/mL (≈ 161 µM) | 500 µg/mL (≈ 1610 µM) | 62.5 µg/mL (≈ 201 µM)
O=C(c1cnn(-c2ccc(F)c(F)c2)c1)c1ccccc1O | 12.5 µg/mL (≈ 41.6 µM) | 250 µg/mL (≈ 833 µM) | 500 µg/mL (≈ 1670 µM) | 100 µg/mL (≈ 333 µM) | 555 µg/mL (≈ 1850 µM)
Cc1ccc(/C(=N\O)c2cnn(-c3ccc(F)c(F)c3)c2)c(O)c1 | 500 µg/mL (≈ 1520 µM) | 25 µg/mL (≈ 75.9 µM) | 250 µg/mL (≈ 759 µM) | 500 µg/mL (≈ 1520 µM) | 50 µg/mL (≈ 152 µM)
O=C(c1cnn(-c2ccc(F)c(F)c2)c1)c1cc(Br)ccc1O | 100 µg/mL (≈ 264 µM) | 500 µg/mL (≈ 1320 µM) | 125 µg/mL (≈ 330 µM) | > 1000 µg/mL | 500 µg/mL (≈ 1320 µM)
COC1=CC(=O)C[C@@H](C)[C@]12Oc1c(Cl)c(OC)cc(OC)c1C2=O [GRISEOFULVIN] | – | – | – | 500 µg/mL (≈ 1420 µM) | –
O/N=C(/c1cnn(-c2ccc(F)c(F)c2)c1)c1cc(Cl)ccc1O | 62.5 µg/mL (≈ 179 µM) | 12.5 µg/mL (≈ 35.7 µM) | 100 µg/mL (≈ 286 µM) | 1000 µg/mL (≈ 2860 µM) | 125 µg/mL (≈ 357 µM)
